# Assay results published in ChEMBL document CHEMBL1671734, “An ertapenem-resistant extended-spectrum-beta-lactamase-producing Klebsiella pneumoniae clone carries a novel OmpK36 porin variant” (2010).
# Columns and labels:
# Assay type in all cases: functional
# [1] = tested on: Klebsiella pneumoniae; assay: Antimicrobial activity against ESBL-positive Klebsiella pneumoniae 71697 harboring porin OmpK36V mutant gene by Etest
# [2] = tested on: Klebsiella pneumoniae; assay: Antimicrobial activity against ESBL-positive Klebsiella pneumoniae 69928 harboring porin OmpK36V mutant gene by Etest
# [3] = tested on: Klebsiella pneumoniae; assay: Antimicrobial activity against ESBL-positive Klebsiella pneumoniae 69036 harboring porin OmpK36V mutant gene by Etest
# [4] = tested on: Klebsiella pneumoniae; assay: Antimicrobial activity against ESBL-positive Klebsiella pneumoniae 50748 harboring porin OmpK36 gene by Etest
# [5] = tested on: Klebsiella pneumoniae; assay: Antimicrobial activity against ESBL-positive Klebsiella pneumoniae 18260 harboring pSHA2-encoded porin OmpK36 gene by Etest
# [6] = tested on: Klebsiella pneumoniae; assay: Antimicrobial activity against ESBL-positive Klebsiella pneumoniae 17829 harboring pSHA2-encoded porin OmpK36 gene by Etest
# [7] = tested on: Klebsiella pneumoniae; assay: Antimicrobial activity against ESBL-positive Klebsiella pneumoniae 19039 harboring porin OmpK36V mutant gene by Etest
# [8] = tested on: Klebsiella pneumoniae; assay: Antimicrobial activity against ESBL-positive Klebsiella pneumoniae 18918 harboring porin OmpK36V mutant gene by Etest
# [9] = tested on: Klebsiella pneumoniae; assay: Antimicrobial activity against ESBL-positive Klebsiella pneumoniae 18567 harboring porin OmpK36V mutant gene by Etest
# [10] = tested on: Klebsiella pneumoniae; assay: Antimicrobial activity against ESBL-positive Klebsiella pneumoniae 18260 by Etest
# [11] = tested on: Klebsiella pneumoniae; assay: Antimicrobial activity against ESBL-positive Klebsiella pneumoniae 17834 harboring porin OmpK36V mutant gene by Etest
# [12] = tested on: Klebsiella pneumoniae; assay: Antimicrobial activity against ESBL-positive Klebsiella pneumoniae 17830 harboring porin OmpK36V mutant gene by Etest
# [13] = tested on: Klebsiella pneumoniae; assay: Antimicrobial activity against ESBL-positive Klebsiella pneumoniae 17829 by Etest
# [14] = tested on: Klebsiella pneumoniae; assay: Antimicrobial activity against ESBL-positive Klebsiella pneumoniae 17049 harboring porin OmpK36V mutant gene by Etest
# [15] = tested on: Klebsiella pneumoniae; assay: Antimicrobial activity against ESBL-positive Klebsiella pneumoniae 16855 harboring porin OmpK36 and OmpK35 genes by Etest
# [16] = tested on: Klebsiella pneumoniae; assay: Antimicrobial activity against ESBL-positive Klebsiella pneumoniae 6267 harboring porin OmpK36V mutant gene by Etest
# [17] = tested on: Klebsiella pneumoniae; assay: Antimicrobial activity against ESBL-positive Klebsiella pneumoniae 11932 harboring porin OmpK36 gene by Etest
# [18] = tested on: Klebsiella pneumoniae; assay: Antimicrobial activity against ESBL-positive Klebsiella pneumoniae 16830 harboring porin OmpK36 gene by Etest
# [19] = tested on: Klebsiella pneumoniae; assay: Antimicrobial activity against ESBL-positive Klebsiella pneumoniae 25008 by Etest
# [20] = tested on: Klebsiella pneumoniae; assay: Antimicrobial activity against ESBL-positive Klebsiella pneumoniae 26077 harboring porin OmpK36V mutant gene by Etest
# [21] = tested on: Klebsiella pneumoniae; assay: Antimicrobial activity against ESBL-positive Klebsiella pneumoniae 287942 harboring porin OmpK36 gene by Etest
# [22] = tested on: Klebsiella pneumoniae; assay: Antimicrobial activity against ESBL-positive Klebsiella pneumoniae 29459 harboring porin OmpK36 gene by Etest
# [23] = tested on: Klebsiella pneumoniae; assay: Antimicrobial activity against ESBL-positive Klebsiella pneumoniae 29830 harboring porin OmpK36V mutant gene by Etest
# [24] = tested on: Klebsiella pneumoniae; assay: Antimicrobial activity against ESBL-negative Klebsiella pneumoniae 299332 harboring porin OmpK36 gene by Etest
# [25] = tested on: Klebsiella pneumoniae; assay: Antimicrobial activity against ESBL-negative Klebsiella pneumoniae 30018 harboring porin OmpK35 gene by Etest
# [26] = tested on: Klebsiella pneumoniae; assay: Antimicrobial activity against ESBL-positive Klebsiella pneumoniae 31750 harboring porin OmpK36 gene by Etest
# [27] = tested on: Klebsiella pneumoniae; assay: Antimicrobial activity against ESBL-positive Klebsiella pneumoniae 71697 harboring porin OmpK36V mutant gene by Etest in presence of Tazobactam
# [28] = tested on: Klebsiella pneumoniae; assay: Antimicrobial activity against ESBL-positive Klebsiella pneumoniae 69928 harboring porin OmpK36V mutant gene by Etest in presence of Tazobactam
# [29] = tested on: Klebsiella pneumoniae; assay: Antimicrobial activity against ESBL-positive Klebsiella pneumoniae 69036 harboring porin OmpK36V mutant gene by Etest in presence of Tazobactam
# [30] = tested on: Klebsiella pneumoniae; assay: Antimicrobial activity against ESBL-positive Klebsiella pneumoniae 50748 harboring porin OmpK36 gene by Etest in presence of Tazobactam
# [31] = tested on: Klebsiella pneumoniae; assay: Antimicrobial activity against ESBL-positive Klebsiella pneumoniae 19039 harboring porin OmpK36V mutant gene by Etest in presence of Tazobactam
# [32] = tested on: Klebsiella pneumoniae; assay: Antimicrobial activity against ESBL-positive Klebsiella pneumoniae 18918 harboring porin OmpK36V mutant gene by Etest in presence of Tazobactam
# [33] = tested on: Klebsiella pneumoniae; assay: Antimicrobial activity against ESBL-positive Klebsiella pneumoniae 18567 harboring porin OmpK36V mutant gene by Etest in presence of Tazobactam
# [34] = tested on: Klebsiella pneumoniae; assay: Antimicrobial activity against ESBL-positive Klebsiella pneumoniae 18260 by Etest in presence of Tazobactam
# [35] = tested on: Klebsiella pneumoniae; assay: Antimicrobial activity against ESBL-positive Klebsiella pneumoniae 17834 harboring porin OmpK36V mutant gene by Etest in presence of Tazobactam
# [36] = tested on: Klebsiella pneumoniae; assay: Antimicrobial activity against ESBL-positive Klebsiella pneumoniae 17830 harboring porin OmpK36V mutant gene by Etest in presence of Tazobactam
# [37] = tested on: Klebsiella pneumoniae; assay: Antimicrobial activity against ESBL-positive Klebsiella pneumoniae 17829 by Etest in presence of Tazobactam
# [38] = tested on: Klebsiella pneumoniae; assay: Antimicrobial activity against ESBL-positive Klebsiella pneumoniae 17049 harboring porin OmpK36V mutant gene by Etest in presence of Tazobactam
# [39] = tested on: Klebsiella pneumoniae; assay: Antimicrobial activity against ESBL-positive Klebsiella pneumoniae 16855 harboring porin OmpK36 and OmpK35 genes by Etest in presence of Tazobactam
# [40] = tested on: Klebsiella pneumoniae; assay: Antimicrobial activity against ESBL-positive Klebsiella pneumoniae 6267 harboring porin OmpK36V mutant gene by Etest in presence of Tazobactam
# [41] = tested on: Klebsiella pneumoniae; assay: Antimicrobial activity against ESBL-positive Klebsiella pneumoniae 11932 harboring porin OmpK36 gene by Etest in presence of Tazobactam
# [42] = tested on: Klebsiella pneumoniae; assay: Antimicrobial activity against ESBL-positive Klebsiella pneumoniae 16830 harboring porin OmpK36 gene by Etest in presence of Tazobactam
# [43] = tested on: Klebsiella pneumoniae; assay: Antimicrobial activity against ESBL-positive Klebsiella pneumoniae 25008 by Etest in presence of Tazobactam
# [44] = tested on: Klebsiella pneumoniae; assay: Antimicrobial activity against ESBL-positive Klebsiella pneumoniae 26077 harboring porin OmpK36V mutant gene by Etest in presence of Tazobactam
# [45] = tested on: Klebsiella pneumoniae; assay: Antimicrobial activity against ESBL-positive Klebsiella pneumoniae 287942 harboring porin OmpK36 gene by Etest in presence of Tazobactam
# [46] = tested on: Klebsiella pneumoniae; assay: Antimicrobial activity against ESBL-positive Klebsiella pneumoniae 29459 harboring porin OmpK36 gene by Etest in presence of Tazobactam
# [47] = tested on: Klebsiella pneumoniae; assay: Antimicrobial activity against ESBL-positive Klebsiella pneumoniae 29830 harboring porin OmpK36V mutant gene by Etest in presence of Tazobactam
# [48] = tested on: Klebsiella pneumoniae; assay: Antimicrobial activity against ESBL-negative Klebsiella pneumoniae 299332 harboring porin OmpK36 gene by Etest in presence of Tazobactam
# [49] = tested on: Klebsiella pneumoniae; assay: Antimicrobial activity against ESBL-negative Klebsiella pneumoniae 30018 harboring porin OmpK35 gene by Etest in presence of Tazobactam
# [50] = tested on: Klebsiella pneumoniae; assay: Antimicrobial activity against ESBL-positive Klebsiella pneumoniae 31750 harboring porin OmpK36 gene by Etest in presence of Tazobactam
structure (smiles),measurement,setting,value
CC(C)(O/N=C(\C(=O)N[C@@H]1C(=O)N2C(C(=O)[O-])=C(C[n+]3ccccc3)CS[C@H]12)c1csc(N)n1)C(=O)O [CEFTAZIDIME],MIC,[1],> 32 mg/L
same,MIC,[2],> 32 mg/L
same,MIC,[3],> 32 mg/L
same,MIC,[4],> 32 mg/L
same,MIC,[5],> 32 mg/L
same,MIC,[6],> 32 mg/L
same,MIC,[7],> 32 mg/L
same,MIC,[8],> 32 mg/L
same,MIC,[9],> 32 mg/L
same,MIC,[10],> 32 mg/L
same,MIC,[11],> 32 mg/L
same,MIC,[12],> 32 mg/L
same,MIC,[13],> 32 mg/L
same,MIC,[14],> 32 mg/L
same,MIC,[15],> 32 mg/L
same,MIC,[16],> 32 mg/L
same,MIC,[17],> 32 mg/L
same,MIC,[18],> 32 mg/L
same,MIC,[19],> 32 mg/L
same,MIC,[20],> 32 mg/L
same,MIC,[21],> 32 mg/L
same,MIC,[22],> 32 mg/L
same,MIC,[23],> 32 mg/L
same,MIC,[24],< 0.5 mg/L
same,MIC,[25],< 0.5 mg/L
same,MIC,[26],> 32 mg/L
C[C@@H](O)[C@H]1C(=O)N2C(C(=O)O)=C(SCCNC=N)C[C@H]12 [IMIPENEM ANHYDROUS],MIC,[1],0.19 mg/L
same,MIC,[2],0.5 mg/L
same,MIC,[3],0.19 mg/L
same,MIC,[4],0.25 mg/L
same,MIC,[5],1 mg/L
same,MIC,[6],1 mg/L
same,MIC,[7],0.19 mg/L
same,MIC,[8],0.19 mg/L
same,MIC,[9],0.19 mg/L
same,MIC,[10],12 mg/L
same,MIC,[11],0.19 mg/L
same,MIC,[12],0.19 mg/L
same,MIC,[13],12 mg/L
same,MIC,[14],0.25 mg/L
same,MIC,[15],0.25 mg/L
same,MIC,[16],0.5 mg/L
same,MIC,[17],0.19 mg/L
same,MIC,[18],0.125 mg/L
same,MIC,[19],1 mg/L
same,MIC,[20],0.19 mg/L
same,MIC,[21],0.19 mg/L
same,MIC,[22],0.19 mg/L
same,MIC,[23],0.19 mg/L
same,MIC,[24],0.25 mg/L
same,MIC,[25],0.25 mg/L
same,MIC,[26],0.19 mg/L
C[C@@H](O)[C@H]1C(=O)N2C(C(=O)O)=C(S[C@@H]3CN[C@H](C(=O)N(C)C)C3)[C@H](C)[C@H]12 [MEROPENEM],MIC,[1],1.5 mg/L
same,MIC,[2],1.5 mg/L
same,MIC,[3],1 mg/L
same,MIC,[4],0.094 mg/L
same,MIC,[5],1 mg/L
same,MIC,[6],1 mg/L
same,MIC,[7],1 mg/L
same,MIC,[8],1 mg/L
same,MIC,[9],1 mg/L
same,MIC,[10],12 mg/L
same,MIC,[11],0.75 mg/L
same,MIC,[12],1.5 mg/L
same,MIC,[13],12 mg/L
same,MIC,[14],2 mg/L
same,MIC,[15],0.064 mg/L
same,MIC,[16],1 mg/L
same,MIC,[17],0.064 mg/L
same,MIC,[18],0.047 mg/L
same,MIC,[19],4 mg/L
same,MIC,[20],1 mg/L
same,MIC,[21],0.064 mg/L
same,MIC,[22],0.094 mg/L
same,MIC,[23],1 mg/L
same,MIC,[24],0.032 mg/L
same,MIC,[25],0.032 mg/L
same,MIC,[26],0.064 mg/L
CCN1CCN(C(=O)N[C@@H](C(=O)N[C@@H]2C(=O)N3[C@@H]2SC(C)(C)[C@@H]3C(=O)O)c2ccccc2)C(=O)C1=O [PIPERACILLIN],MIC,[27],> 256 mg/L
same,MIC,[28],> 256 mg/L
same,MIC,[29],> 256 mg/L
same,MIC,[30],12 mg/L
same,MIC,[31],> 256 mg/L
same,MIC,[32],> 256 mg/L
same,MIC,[33],> 256 mg/L
same,MIC,[34],> 256 mg/L
same,MIC,[35],> 256 mg/L
same,MIC,[36],> 256 mg/L
same,MIC,[37],> 256 mg/L
same,MIC,[38],> 256 mg/L
same,MIC,[39],32 mg/L
same,MIC,[40],12 mg/L
same,MIC,[41],> 256 mg/L
same,MIC,[42],16 mg/L
same,MIC,[43],> 256 mg/L
same,MIC,[44],> 256 mg/L
same,MIC,[45],> 256 mg/L
same,MIC,[46],> 256 mg/L
same,MIC,[47],> 256 mg/L
same,MIC,[48],6 mg/L
same,MIC,[49],3 mg/L
same,MIC,[50],8 mg/L
